In article PMC5491371 (Clinical cancer research : an official journal of the …, 2016):

Target: T1, ITK (Homo sapiens, UniProt Q08881)
T1 sequence (Q08881 1-620): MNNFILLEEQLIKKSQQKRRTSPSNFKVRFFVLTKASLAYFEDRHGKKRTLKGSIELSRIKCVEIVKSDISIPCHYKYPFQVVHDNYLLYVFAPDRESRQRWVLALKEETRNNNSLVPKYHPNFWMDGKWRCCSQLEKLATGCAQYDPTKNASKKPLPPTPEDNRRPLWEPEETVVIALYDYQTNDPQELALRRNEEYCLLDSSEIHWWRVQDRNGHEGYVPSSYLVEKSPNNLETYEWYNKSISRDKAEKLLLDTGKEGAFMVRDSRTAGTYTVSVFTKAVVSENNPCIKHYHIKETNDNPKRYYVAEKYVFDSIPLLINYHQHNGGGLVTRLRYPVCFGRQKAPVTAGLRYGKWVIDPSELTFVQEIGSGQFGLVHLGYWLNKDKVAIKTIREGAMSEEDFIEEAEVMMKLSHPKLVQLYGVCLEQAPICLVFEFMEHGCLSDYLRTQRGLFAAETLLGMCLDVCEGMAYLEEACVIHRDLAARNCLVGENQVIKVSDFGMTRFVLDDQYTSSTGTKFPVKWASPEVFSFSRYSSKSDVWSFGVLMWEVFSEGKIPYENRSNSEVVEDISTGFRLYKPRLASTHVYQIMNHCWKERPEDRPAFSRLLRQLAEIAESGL
Assay type: cell-based
Details: Jurkat, read-out: % inhibition at 1 μM

SMILES: C=CC(=O)N1CCC[C@@H](n2nc(-c3ccc(Oc4ccccc4)cc3)c3c(N)ncnc32)C1 [ibrutinib]
- inhibition at 1 µM: > 90%
